Publication PMC10799935, “Discovery of a peripheral 5HT2A antagonist as a clinical candidate for metabolic dysfunction-associated steatohepatitis” (Nature Communications, 2024)
“And” between values parts separate entries of the source, which are not always exact repeats. Equal entries are not always repeated.

Columns and labels:
[1] = tested on: CDAHFD-fed C57BL/6 J mice; test: CDAHFD mice (12 weeks): body weight and clinical signs; type: in vivo, mouse; design: Body weight: unit: g; settings: for Body weight, Mean Diff.: Tukey; for Body weight, Mean (one-way ANOVA): mean of 13 weekly values
From the text: (§1) C57BL/6 J male mice were purchased from the Japan SLC. Inc (Hamamatsu, Japan). Mice (5 weeks old) were fed Teklad Certitied Irradiated Global 18% protein rodent diet purchased from Dooyeol Biotech Co. Ltd (Seoul, South Korea) during the acclimation period. The liver fibrosis/inflammation-induced groups were CDAHFD-fed (A06071302, Research diet). […] All animal experiments complied with the relevant ethical regulations.

[2] = Phase 1 clinical trial, SAD (single ascending dose) study; settings: human, in vivo
[3] = in vitro; settings: Chinese hamster
[4] = tested on: Col1a1; test: CDAHFD mice: liver Col1a1 RNA expression (qRT-PCR); type: in vivo, mouse; settings: for Relative liver Col1a1 expressions in mice, measured using quantitative RT-PCR: individual mice and Average; for Col1A1 mRNA, Mean Diff.: Tukey; for Col1A1 mRNA, Median / Col1A1 mRNA, Mean: n=5; for Col1A1 mRNA, Mean: Column A = 1
From the text: as §1, with “diet). […].” for “diet).”
The frozen liver tissue was homogenized and put into QiAzol (Qiagen, Hilden) to isolate RNA, and 4 μg of RNA was synthesized into cDNA using the RevertAid First Strand cDNA synthesis kit (Thermo Fischer, Waltham). The expressions of mouse collagen I (Forward: 5’-TGTGTTCCCTACTCAGCCGTG-3’. Reverse: 5’-CATCGGTCATGCTCTCTCCAA-3’), mouse α-SMA (Forward:5’-TCCTGACGCTGAAGTATCCGAT-3’, Reverse: 5’-GGCCACACAAAGCTCGTTATAG-3’) and mouse 36B4 (Forward: 5’-ACCTCCTTCTTCCAGGCTTT-3’, Reverse: 5’-CTCCAGTCTTTATCAGCTGC-3’) as house-keeping gene were measured using ViiA 7 Real-time PCR system (Thermo Fischer scientific).

[5] = Column C (11c 5mpk) vs. Column D (11c 10mpk)
[6] = Column C (11c 5mpk) vs. Column B
[7] = Column D (11c 10mpk) vs. Column B

In the case of `Cc1nc2n(c(=O)c1CCN1CCC(=C3c4ccc(Cl)cc4CCc4cccnc43)CC1)CCCC2O` (stereo not drawn) [Compound 11c], the “body weight changes among the CDAHFD groups” value ([1]; 12 weeks) is reported as “not significantly different”, the “clinical signs during the study period” value ([1]; CDAHFD mice, 5 and 10 mpk PO daily, 12 weeks) is reported as “no abnormal clinical signs were observed” and the Body weight, Average ([1]; CDAHFD+11c 5mpk, week 0, 5 mice) is reported as 20.6 g. The Body weight ([1]; CDAHFD+11c 5mpk, week 0, individual mouse, in g (unit assumed)) was 21.7 and 20.6 and 20.4 and 20.7 and 19.7, the Body weight, Average ([1]; CDAHFD+11c 5mpk, week 1, 5 mice) was 20.6 g and the Body weight ([1]; CDAHFD+11c 5mpk, week 1, individual mouse, in g (unit assumed)) was 21.2 and 20.8 and 20.5 and 20.7 and 19.7. The Body weight, Average ([1]; CDAHFD+11c 5mpk, week 2, 5 mice) was 20.1 g, the Body weight, Average ([1]; CDAHFD+11c 5mpk, week 3, 5 mice) was 19.9 g and the Body weight, Average ([1]; CDAHFD+11c 5mpk, week 4, 5 mice) was 20.3 g. The Body weight, Average ([1]; CDAHFD+11c 5mpk, week 5, 5 mice) was 20.5 g, the Body weight ([1]; CDAHFD+11c 5mpk, week 5, individual mouse, in g (unit assumed)) was 20.8 and 21.2 and 20.5 and 20.2 and 19.9 and the Body weight, Average ([1]; CDAHFD+11c 5mpk, week 6, 5 mice) was 20.8 g. For the same compound, the Body weight ([1]; CDAHFD+11c 5mpk, week 6, individual mouse) was 20.9 (2×) and 21.4 and 20.7 and 20.3, the Body weight, Average ([1]; CDAHFD+11c 5mpk, week 7, 5 mice) was 21.4 g and the Body weight ([1]; CDAHFD+11c 5mpk, week 7, individual mouse) was 22.0 (2×) and 21.7 and 21.0 and 20.4. For the same compound, the Body weight, Average ([1]; CDAHFD+11c 5mpk, week 8, 5 mice) was 21.6 g, the Body weight ([1]; CDAHFD+11c 5mpk, week 8, individual mouse, in g (unit assumed)) was 22.3 and 22.1 and 21.9 and 21.5 and 20.3 and the Body weight, Average ([1]; CDAHFD+11c 5mpk, week 9, 5 mice) was 22.1 g. The Body weight ([1]; CDAHFD+11c 5mpk, week 9, individual mouse) was 23.0 and 22.4 (2×) and 21.7 and 20.9, the Body weight, Average ([1]; CDAHFD+11c 5mpk, week 10, 5 mice) was 22.2 g and the Body weight ([1]; CDAHFD+11c 5mpk, week 10, individual mouse, in g (unit assumed)) was 23.1 and 22.5 and 22.4 and 22.3 and 20.8. For the same compound, the Body weight, Average ([1]; CDAHFD+11c 5mpk, week 11, 5 mice) was 22.5 g, the Body weight ([1]; CDAHFD+11c 5mpk, week 11, individual mouse, in g (unit assumed)) was 23.6 and 23.2 and 22.9 and 22.3 and 20.7 and the Body weight, Average ([1]; CDAHFD+11c 5mpk, week 12, 5 mice) was 22.5 g. For the same compound, the Body weight ([1]; CDAHFD+11c 5mpk, week 12, individual mouse, in g (unit assumed)) was 23.4 and 23.6 and 22.5 and 22.1 and 20.9, the Body weight, Average ([1]; CDAHFD+11c 10mpk, week 0, 5 mice) was 20.6 g and the Body weight ([1]; CDAHFD+11c 10mpk, week 0, individual mouse) was 21.3 (2×) and 20.1 and 20.3 and 20.0. The Body weight, Average ([1]; CDAHFD+11c 10mpk, week 1, 5 mice) was 20.4 g, the Body weight ([1]; CDAHFD+11c 10mpk, week 1, individual mouse) was 20.1 and 19.8 and 20.3 and 20.9 (2×) and the Body weight, Average ([1]; CDAHFD+11c 10mpk, week 2, 5 mice) was 20.3 g. The Body weight, Average ([1]; CDAHFD+11c 10mpk, week 3, 5 mice) was 20.3 g, the Body weight, Average ([1]; CDAHFD+11c 10mpk, week 4, 5 mice) was 20.5 g and the Body weight, Average ([1]; CDAHFD+11c 10mpk, week 5, 5 mice) was 20.9 g. For the same compound, the Body weight ([1]; CDAHFD+11c 10mpk, week 5, individual mouse) was 20.9 (2×) and 20.6 and 22.0 and 20.3, the Body weight, Average ([1]; CDAHFD+11c 10mpk, week 6, 5 mice) was 21.2 g and the Body weight ([1]; CDAHFD+11c 10mpk, week 6, individual mouse, in g (unit assumed)) was 21.4 and 20.9 and 22.2 and 20.8 and 20.5. The Body weight, Average ([1]; CDAHFD+11c 10mpk, week 7, 5 mice) was 21.5 g, the Body weight ([1]; CDAHFD+11c 10mpk, week 7, individual mouse, in g (unit assumed)) was 21.9 and 21.0 and 22.3 and 21.1 and 21.2 and the Body weight, Average ([1]; CDAHFD+11c 10mpk, week 8, 5 mice) was 21.8 g. The Body weight ([1]; CDAHFD+11c 10mpk, week 8, individual mouse) was 22.0 and 21.2 and 23.0 and 21.4 (2×), the Body weight, Average ([1]; CDAHFD+11c 10mpk, week 9, 5 mice) was 21.8 g and the Body weight ([1]; CDAHFD+11c 10mpk, week 9, individual mouse, in g (unit assumed)) was 22.6 and 21.2 and 22.8 and 21.5 and 21.1. The Body weight, Average ([1]; CDAHFD+11c 10mpk, week 10, 5 mice) was 22 g, the Body weight ([1]; CDAHFD+11c 10mpk, week 10, individual mouse, in g (unit assumed)) was 22.4 and 21.7 and 23.1 and 21.6 and 21.4 and the Body weight, Average ([1]; CDAHFD+11c 10mpk, week 11, 5 mice) was 22.4 g. For the same compound, the Body weight ([1]; CDAHFD+11c 10mpk, week 11, individual mouse) was 22.7 and 22.1 (2×) and 23.5 and 21.8, the Body weight, Average ([1]; CDAHFD+11c 10mpk, week 12, 5 mice) was 22.5 g and the Body weight ([1]; CDAHFD+11c 10mpk, week 12, individual mouse) was 22.9 and 22.3 (2×) and 23.3 and 21.6. The “Body weight, Mean Diff.” value ([1]; Column A (Vehicle, no CDAHFD) vs. Column C (11c 5mpk), in g (unit assumed)) was 3.52, the “Body weight, Mean Diff.” value ([1]; Column A (Vehicle, no CDAHFD) vs. Column D (11c 10mpk), in g (unit assumed)) was 3.44 and the “Body weight, Mean Diff.” value ([1]; Column B (CDAHFD+vehicle) vs. Column C (11c 5mpk), in g (unit assumed)) was 0.1462. The “Body weight, Mean Diff.” value ([1]; Column B (CDAHFD+vehicle) vs. Column D (11c 10mpk), in g (unit assumed)) was 0.06615, the “Body weight, Mean Diff.” value [1, 5] was -0.08 and the “Body weight, Mean (one-way ANOVA)” value ([1]; Column C (CDAHFD+11c 5mpk), in g (unit assumed)) was 21.17. For the same compound, the “Body weight, Mean (one-way ANOVA)” value ([1]; Column D (CDAHFD+11c 10mpk), in g (unit assumed)) was 21.25, the half-life [2] was greater than 10 h and the IC50 [3] was greater than 100 µM. For the same compound, the “Relative liver Col1a1 expressions in mice, measured using quantitative RT-PCR” value (“Relative liver Col1a1 expressions” for short) ([4]; CDAHFD+11c 5 mpk) was 27.265 and 19.811 and 25.539 and 19.317 and 28.556, the “Relative liver Col1a1 expressions” value ([4]; CDAHFD+11c 5 mpk, mean) was 24.098 and the “Relative liver Col1a1 expressions” value ([4]; CDAHFD+11c 10mpk) was 18.660 and 20.539 and 29.586 and 37.388 and 28.021. The “Relative liver Col1a1 expressions” value ([4]; CDAHFD+11c 10mpk, mean) was 26.839, the “mRNA expression of Col1a1 in liver tissue” value ([4]; CDAHFD-fed 11c vs CDAHFD-fed vehicle group) was “significantly decreased” and the “Col1A1 mRNA, Mean Diff.” value ([4]; Column A (Vehicle, no CDAHFD) vs. Column C (11c 5mpk)) was -23.1. For the same compound, the “Col1A1 mRNA, Mean Diff.” value ([4]; Column A (Vehicle, no CDAHFD) vs. Column D (11c 10mpk)) was -25.84, the “Col1A1 mRNA, Mean Diff.” value ([4]; Column B (CDAHFD+vehicle) vs. Column C (11c 5mpk)) was 14.99 and the “Col1A1 mRNA, Mean Diff.” value ([4]; Column B (CDAHFD+vehicle) vs. Column D (11c 10mpk)) was 12.25. For the same compound, the “Col1A1 mRNA, Difference between medians: Actual” value [4, 6] was -15.12, the “Col1A1 mRNA, Difference between medians: Hodges-Lehmann” value [4, 6] was -15.12 and the “Col1A1 mRNA, Mean Diff.” value [4, 5] was -2.741. The “Col1A1 mRNA, Median” value ([4]; Column C (11c 5mpk)) was 25.54, n=5, the “Col1A1 mRNA, Mean” value ([4]; Column C (CDAHFD+11c 5mpk)) was 24.1 and the “Col1A1 mRNA, Difference between medians: Actual” value [4, 7] was -12.64. For the same compound, the “Col1A1 mRNA, Difference between medians: Hodges-Lehmann” value [4, 7] was -12.18, the “Col1A1 mRNA, Median” value ([4]; Column D (11c 10mpk)) was 28.02, n=5 and the “Col1A1 mRNA, Mean” value ([4]; Column D (CDAHFD+11c 10mpk)) was 26.84.
